Measurements published in US11160788B2, “Caspase-1 inhibition and uses thereof for prevention and treatment of neurological conditions” (priority 2016, dated 2021).

How the values were obtained:
J20 mice [1] = assay: Barnes maze spatial memory, treatment of symptomatic J20 mice; type: in vivo, mouse
Text: FIG. 8: VX-765 treatment restores cognitive function in J20 mice. (a) Experimental paradigm. Intraperitoneal vehicle-injected wild type (WT+Vehicle; n=13) and J20 mice (J20+Vehicle: n=9), and VX-765-injected J20 mice (J20+VX-765: n=9) mice were behaviourally assessed at 5 different time-points: baseline before treatment (baseline untreated J20 were grouped together; n=18), after 3 IP injections/wk of VX-765 or vehicle (Treatment 1), after 6 additional injections over 2 weeks (Treatment 2), after 4-week Washout period, and after an additional 3 injections in one week (Treatment 3). Mice were sacrificed at 8 months of age after Treatment 3 (b) NOR Discrimination index (Treatment main effect, F(2,20)=85.8, p<0.0001; Time main effect, F(4,80)=4.188, p=0.0039; Treatment×Time interaction, F(8,80)=[…], two-way repeated-measures ANOVA, Dunnett's post-hoc compared to J20+Vehicle). (c) Distance traveled during Open Field task. Data analyzed by repeated measures two-way ANOVA (Treatment main effect, F(2,19)=11.47, p=0.0005; Treatment×Time interaction, F(8,76)=5.69, p<0.0001, two-way repeated-measures ANOVA, Dunnett's post-hoc compared to J20+Vehicle). (d-i) Barnes maze analysis. Learning acquisition (d,g), probe test primary latency and errors (e,h), and target hole preference (f,i); # of pokes of each hole labelled +1 to +9 to the right or −1 to −9 to the left of the target hole during the probe) after Treatment 2 (d-f) and Washout (g-i). Probe tests were analyzed (Treatment 2 primary latency, F(2,52)=5.879, p=0.0050; Treatment 2 primary errors, F(2,52)=9.998, p=0.0002; Washout primary latency, F(2,22)=4.076, p=0.0312; Washout primary errors, F(2,22)=10.84, p=0.0005, ANOVA, Tukey's post-hoc). * p<0.05, ***p<0.001, ****p<0.0001.
FIG. 9: VX-765 dose-dependently restores cognitive function in J20 mice. (a) NOR discrimination index after VX-765 dose response at Treatment 1 (F(3,24)=20.42, p<0.0001, ANOVA, Dunnett's post-hoc compared to J20 0 mg/kg), Treatment 2 (F(3,23)=12.83, p<0.0001, ANOVA, Dunnett's post-hoc compared to J20 0 mg/kg), Washout, and Treatment 3 (F(3,23)=8.828, p=0.0004, ANOVA, Dunnett's post-hoc compared to J20 0 mg/kg). Note that the 50 mg/kg dose was not performed at the same time and is placed here for comparison purposes only. Nevertheless, the discrimination index was stable between experiments (b-g) Barnes maze Treatment 2 (b-d) and Washout (e-g) learning acquisition (b,e), probe test (c,f), and target hole preference (d,g). For T2 primary errors, F(2,14)=5.69, p=0.0155, ANOVA, Dunnett's post-hoc compared to J20+Vehicle. * p<0.05, ***p<0.001, ****p<0.0001.
Anxiety and hyperactivity are monitored in an open-field paradigm, episodic memory with the NOR, spatial memory with the Barnes maze, and short or long term working memory with the Y maze before and after treatments. Repeated measures are acceptable for the NOR, Barnes and Y maze^2-4.
Five month old mice were behaviorally and longitudinally assessed before treatment (baseline), after 3 injections/week of 50 mg/kg VX-765 (Treatment 1; T1), after an additional 2 weeks of injections (Treatment 2; T2), after 4 weeks without treatment (Washout; WO), and after 3 more injections/week (Treatment 3; T3) before sacrificing the mice at 8 months of age as illustrated in FIG. 8a. […] Results were consistent across individual mice (FIG. 15c). […] However, during the probe test, the primary latency, primary errors (FIG. 8e) and the ability to find the target (T) escape hatch (FIG. 8f) were clearly impaired in vehicle-injected J20 compared to WT littermates. […] After WO, all mice performed well during the training phase of the Barnes maze (FIG. 8g). […] J20 mice performance in the Y maze working memory task was consistently low but not always statistically different from WT or treated J20 mice (FIG. 15e).

J20 mice [2] = assay: NOR, preventive treatment of pre-symptomatic J20 mice; type: in vivo, mouse
Description: FIG. 22: Novel object recognition behavioral assay to assess episodic memory in J20 mice. Mice were treated with vehicle (WT and J20) or 50 mg/kg VX-765 (J20) at 2 months of age for 1 month (3 injections per week×4 weeks=12 injections). (a) Schematic representation of the manner in which the studies were carried out. (b) Discrimination index indicates the number of touches of the novel object minus the number of touches of the familiar object divided by the number of total touches for both objects. Two-way ANOVA (F(2,240)=75.62, p<0.0001) with Dunnett's compared to the J20+vehicle. * p<0.05, **** p<0.0001 (c) % mice impaired in NOR in each group of mice tested at the different time points.
Studies are done on 8 (pre-symptomatic) week old J20 and littermate WT controls injected with 50 mg/Kg VX-765 or vehicle. The 8 week old mice are injected for 4 weeks (3 injections per week) and monitored for memory deficits at 16 weeks of age and every 4 weeks thereafter until the mice reach 8 months of age. VX-765 delays the onset of cognitive deficits by at least 5 months in the J20 mouse.
To determine if VX-765 can delay the appearance of AD-like cognitive deficits and pathology in the J20 mice, J20 mice were injected 3 times per week for 4 weeks starting at 2 months of age. We started NOR tests at 4 months of age, after 1 month without drug, and retested every month thereafter until 8 months of age (FIG. 3). […] At 8 months of age, only 1 of 3 mice have NOR deficit resulting in an averaged normal behavior. Since we sacrificed 2 mice per group at 4, 5, and 6 months and 3 mice per group at 7 and 8 months, note that the results of the older groups need more experimental data for solid conclusions.
We directly tested whether pre-symptomatic inhibition of inflammation in a mouse genetic model of Alzheimer disease can stem the progression of memory and behavioral deficits, and Alzheimer disease-like pathology. The J20 amyloid precursor protein Swedish/Indiana mutant mouse was treated at 2 months of age for a one month period with 50 mg/Kg Caspase-1 inhibitor VX-765 (FIG. 22a).

CCO[C@@H]1OC(=O)C[C@@H]1NC(=O)[C@@H]1CCCN1C(=O)[C@@H](NC(=O)c1ccc(N)c(Cl)c1)C(C)(C)C [VX-765, (S)-1-((S)-2-{[1-(4-amino-3-chloro-phenyl)-methanoyl]-amino}-3,3-dimethyl-butanoyl)-pyrrolidine-2-carboxylic acid ((2R,3S)-2-ethoxy-5-oxo-tetrahydro-furan-3-yl)-amide]
Barnes maze ability to recognize the escape hatch in probe test (J20 mice [1]; 10 mg/kg, after Treatment 2): improved in their ability to recognize the escape hatch | Barnes maze primary latency (J20 mice [1]; 10 mg/kg, after Treatment 2): remained impaired in primary latency | Barnes maze primary latency and errors (J20 mice [1]; 10 mg/kg, after washout): No significant difference | Barnes maze ability to recognize the escape hatch in probe test (J20 mice [1]; 25 mg/kg, after Treatment 2): improved in their ability to recognize the escape hatch | Barnes maze primary errors (J20 mice [1]; 25 mg/kg, after Treatment 2): decreased | Barnes maze primary latency (J20 mice [1]; 25 mg/kg, after Treatment 2): remained impaired in primary latency | Barnes maze primary latency and errors (J20 mice [1]; 25 mg/kg, after washout): No significant difference | Barnes maze recognition of the position of the escape hatch (J20 mice [1]; 25 mg/kg, after washout): retained the ability to recognize the position of the escape hatch | Barnes maze probe test: primary latency, primary errors, finding target hatch (J20 mice [1]; 50 mg/kg IP, after Treatment 2): eliminated these spatial memory deficits | Barnes maze ability to find the target hatch (J20 mice [1]; 50 mg/kg IP, after washout): performed better than vehicle-injected J20 mice | Barnes maze probe test primary latency and errors (J20 mice [1]; 50 mg/kg IP, after washout): appeared normal in primary latency and errors | delay of the onset of cognitive deficits (J20 mice [2]; 50 mg/Kg, 3 injections per week for 4 weeks from 8 weeks of age): at least 5 months | NOR performance (J20 mice [2]; 4, 5 and 6 months of age (1, 2, 3 month washout)): perform normally on NOR | mice that developed NOR deficits (J20 mice [2]; 7 months of age (4 month washout)): 3 out of 6 | mice with NOR deficit (J20 mice [2]; 8 months of age): 1 of 3 | NOR discrimination index (J20 mice [2]; after 16 and 20 week washout): lower performance although they are still performing better than vehicle-treated J20 mice | NOR discrimination index (J20 mice [2]; average, each washout time point (4 to 20 weeks)): perform like the WT mice | percentage of mice impaired in NOR (J20 mice [2]; each washout time point): does not differ significantly from vehicle-treated WT mice
